Four molecules from patent US6344468B1, “Substituted isoindolones and their use as cyclic GMP modulators in medicaments” (Aventis Pharma Deutschland GmbH, priority 1998, dated 2002) can be followed below.

In this test the target is T1, soluble guanylate cyclase (sGC) (Bos taurus, UniProt P16068+P19687).
T1 construct: The sGC which was employed had been isolated from bovine lung; from tissue; host or cells: bovine lung
T1 sequence (P16068 1-619): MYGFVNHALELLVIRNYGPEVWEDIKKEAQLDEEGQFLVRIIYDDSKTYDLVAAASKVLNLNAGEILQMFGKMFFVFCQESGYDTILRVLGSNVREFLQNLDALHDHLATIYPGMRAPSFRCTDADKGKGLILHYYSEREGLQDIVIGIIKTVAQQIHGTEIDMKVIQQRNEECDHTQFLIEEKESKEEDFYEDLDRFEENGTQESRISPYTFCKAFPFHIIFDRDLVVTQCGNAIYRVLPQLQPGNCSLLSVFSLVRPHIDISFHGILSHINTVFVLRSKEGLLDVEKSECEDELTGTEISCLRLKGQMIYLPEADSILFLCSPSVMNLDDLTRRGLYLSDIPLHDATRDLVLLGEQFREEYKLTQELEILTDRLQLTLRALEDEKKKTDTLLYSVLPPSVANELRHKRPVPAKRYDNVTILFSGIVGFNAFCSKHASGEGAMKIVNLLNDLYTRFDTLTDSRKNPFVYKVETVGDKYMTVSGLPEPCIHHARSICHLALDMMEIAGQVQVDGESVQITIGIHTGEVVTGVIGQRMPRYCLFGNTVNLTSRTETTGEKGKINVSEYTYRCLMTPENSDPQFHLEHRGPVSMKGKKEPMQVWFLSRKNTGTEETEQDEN
T1 sequence (P19687 1-691): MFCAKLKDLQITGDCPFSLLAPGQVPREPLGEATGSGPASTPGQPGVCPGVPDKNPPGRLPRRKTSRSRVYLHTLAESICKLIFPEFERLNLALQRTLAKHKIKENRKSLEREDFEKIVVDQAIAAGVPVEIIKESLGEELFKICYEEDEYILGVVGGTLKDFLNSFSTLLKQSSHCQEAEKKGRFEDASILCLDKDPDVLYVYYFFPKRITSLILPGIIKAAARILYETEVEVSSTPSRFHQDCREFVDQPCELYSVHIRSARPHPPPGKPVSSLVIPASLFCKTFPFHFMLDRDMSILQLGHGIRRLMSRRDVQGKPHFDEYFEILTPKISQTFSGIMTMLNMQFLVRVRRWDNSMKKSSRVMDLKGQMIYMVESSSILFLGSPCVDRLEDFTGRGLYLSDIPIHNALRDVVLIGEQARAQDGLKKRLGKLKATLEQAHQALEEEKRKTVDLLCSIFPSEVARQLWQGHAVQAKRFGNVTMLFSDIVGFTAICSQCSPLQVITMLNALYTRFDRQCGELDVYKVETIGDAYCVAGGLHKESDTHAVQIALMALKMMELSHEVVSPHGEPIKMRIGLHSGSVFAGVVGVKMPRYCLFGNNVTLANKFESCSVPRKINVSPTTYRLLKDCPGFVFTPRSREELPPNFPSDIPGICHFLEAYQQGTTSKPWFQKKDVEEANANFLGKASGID
The test is described as follows: Activation of the soluble guanylate cyclase (cGMP enzyme immunoassay). As to conditions: sGC isolated from bovine lung; concentration 50 μM; n-fold stimulation of basal enzyme activity = [cGMP]test substance/[cGMP]control. The format is biochemical. As to the method:
The activation of the soluble guanylate cyclase (sGC), which catalyzes the conversion of guanosine triphosphate (GTP) into cyclic guanosine monophosphate (cGMP) and pyrophosphate, by the compounds according to the invention was quantified with the aid of an enzyme immunoassay (EIA) from Amersham. To this end, the substances to be tested were initially incubated with sGC in microtiter plates, and the amount of the cGMP formed was then determined.
The sGC which was employed had been isolated from bovine lung (see Methods in Enzymology, volume 195, p. 377). The test solutions (100 μl per well) contained 50 mM triethanolamine (TEA) buffer (pH 7.5), 3 mM MgCl2, 3 mM reduced glutathione (GSH), 0.1 mM GTP, 1 mM 3-isobutyl-1-methylxanthine (IBMX), suitably diluted enzyme solution and the substance to be tested or, in control experiments, the solvent. The substances to be tested were dissolved in dimethyl sulfoxide (DMSO) and the solution was diluted with DMSO/water, so that the final concentration of the substance to be tested in the test mixture was 50 μM. The DMSO concentration in the test mixture was 5% (v/v). The reaction was initiated by addition of the sGC. The reaction mixture was incubated at 37° C. for 15 to 20 minutes and the reaction was then stopped by ice-cooling and addition of the stop reagent (50 mM EDTA, pH 8.0). An aliquot of 50 μl was taken and used for determining the cGMP content using the acetylation protocol of the Amersham cGMP-EIA kit. The absorption of the samples was measured at 450 nm (reference wavelength 620 nm) in a microtiter plate reader. The cGMP concentration was determined using a standard curve which was obtained under the same test conditions. The activation of sGC by a test substance is reported as the n-fold stimulation of the basal enzyme activity which was found in the control experiments (using solvent instead of test substance) (calculated using the formula
n-fold stimulation=[cGMP]test substance/[cGMP]control).
On to `OCc1ccc(-c2nn(Cc3ccccc3)c3ccccc23)o1` [A, 1-benzyl-3-(5-hydroxymethyl-2-furyl)-indazole, reference compound], for which the n-fold stimulation is 2-fold.
The same measure for `COc1cccc(CCN2C(=O)c3ccccc3C2(O)c2ccc(F)cc2)c1` (stereo not shown) [Example 17, 3-(4-Fluorophenyl)-3-hydroxy-2-(2-(3-methoxyphenyl)ethyl)-2,3-dihydro-isoindol-1-one]: 16-fold; for `COc1cccc(CCN2C(=O)c3ccccc3C2(O)c2ccncc2)c1` (stereo not shown) [Example 29, 3-Hydroxy-2-(2-(3-methoxyphenyl)ethyl)-3-(4pyridyl)-2,3-dihydroisoindol-1-one]: 11.8-fold.
On to `COc1cccc(CCN2C(=O)c3c(F)c(F)c(F)c(F)c3C2(O)c2ccc(F)cc2)c1` (stereo not shown) [Example 33, 4,5,6,7-Tetrafluoro-3-(4-fluorophenyl)-3-hydroxy-2-(2-(3-methoxyphenyl)-ethyl)-2,3-dihydroisoindol-1-one], for which the n-fold stimulation is 9.5-fold.
